Test results published in US20260216108A1, “PHARMACEUTICAL COMPOSITION CONTAINING A MITOPHAGY INDUCER” (HANGZHOU PHECDAMED CO., LTD., priority 2023, published 2026).

Assays:
[1] = Compatibility test of API and auxiliary materials: relevant substances (impurities) by HPLC; format: physicochemical; conditions: for Change of relevant substance (in words): 30 days
Procedure: (§1) 4. Using HPLC method to detect the content of the sample and relevant substances.
(§2) The parameters of the HPLC method for the detection of the content and relevant substances are detailed in Table 2 below.
(§3) Placing the samples under experimental conditions of high temperature (60° C.), high humidity (92.5% RH), acceleration (40° C./75% RH) and illumination (visible light 5500 Lux±500 Lux, near ultraviolet light 85 μw/cm2), […] Submitting the samples for relevant indicator testing (test items include appearance, hygroscopic weight gain, content and relevant substances), and comparing the test results with the control samples (raw material).

[2] = Compatibility test of API and auxiliary materials: content by HPLC; format: physicochemical; conditions: for Content: in % (unit assumed)
Procedure: as §1, §2, §3

O=C(O)C[S+]([O-])c1cc(NS(=O)(=O)c2ccc(Br)cc2)c2ccccc2c1O (stereo not shown) [API]
% Impurities RRT0.89 ([1]; 92.5% RH, opened, 0 d): 0.08%
% Impurities RRT1.10 ([1]; 92.5% RH, opened, 0 d): <0.05%
% Impurities RRT1.16 ([1]; 92.5% RH, opened, 0 d): 0.88%
% Impurities RRT1.20 ([1]; 92.5% RH, opened, 0 d): 0.09%
% Impurities RRT1.24 ([1]; 92.5% RH, opened, 0 d): <0.05%
% Impurities RRT1.29 ([1]; 92.5% RH, opened, 0 d): 0.14%
% Impurities RRT1.33 ([1]; 92.5% RH, opened, 0 d): 0.10%
% Impurities RRT1.37 ([1]; 92.5% RH, opened, 0 d): 0.07%
% Impurities RRT1.41 ([1]; 92.5% RH, opened, 0 d): <0.05%
% Impurities RRT1.43 ([1]; 92.5% RH, opened, 0 d): <0.05%
% Impurities RRT1.73 ([1]; 92.5% RH, opened, 0 d): <0.05%
% Impurities RRT1.74 ([1]; 92.5% RH, opened, 0 d): 0.05%
% Impurities Total ([1]; 92.5% RH, opened, 0 d): 1.41%
% Impurities RRT0.37 ([1]; 92.5% RH, opened, 10 d): <0.05%
% Impurities RRT0.46 ([1]; 92.5% RH, opened, 10 d): 0.10%
% Impurities RRT0.89 ([1]; 92.5% RH, opened, 10 d): 0.14%
% Impurities RRT1.10 ([1]; 92.5% RH, opened, 10 d): <0.05%
% Impurities RRT1.16 ([1]; 92.5% RH, opened, 10 d): 1.63%
% Impurities RRT1.20 ([1]; 92.5% RH, opened, 10 d): 0.07%
% Impurities RRT1.21 ([1]; 92.5% RH, opened, 10 d): <0.05%
% Impurities RRT1.24 ([1]; 92.5% RH, opened, 10 d): <0.05%
% Impurities RRT1.29 ([1]; 92.5% RH, opened, 10 d): 0.12%
% Impurities RRT1.33 ([1]; 92.5% RH, opened, 10 d): 0.08%
% Impurities RRT1.37 ([1]; 92.5% RH, opened, 10 d): 0.07%
% Impurities RRT1.41 ([1]; 92.5% RH, opened, 10 d): 0.10%
% Impurities RRT1.43 ([1]; 92.5% RH, opened, 10 d): <0.05%
% Impurities RRT1.54 ([1]; 92.5% RH, opened, 10 d): 0.06%
% Impurities RRT1.64 ([1]; 92.5% RH, opened, 10 d): 0.13%
% Impurities RRT1.70 ([1]; 92.5% RH, opened, 10 d): <0.05%
% Impurities RRT1.73 ([1]; 92.5% RH, opened, 10 d): 0.41%
% Impurities RRT1.74 ([1]; 92.5% RH, opened, 10 d): 0.08%
% Impurities Total ([1]; 92.5% RH, opened, 10 d): 2.99%
% Impurities RRT0.37 ([1]; 92.5% RH, opened, 30 d): <0.05%
% Impurities RRT0.46 ([1]; 92.5% RH, opened, 30 d): 0.17%
% Impurities RRT0.89 ([1]; 92.5% RH, opened, 30 d): 0.12%
% Impurities RRT1.10 ([1]; 92.5% RH, opened, 30 d): <0.05%
% Impurities RRT1.16 ([1]; 92.5% RH, opened, 30 d): 1.65%
% Impurities RRT1.20 ([1]; 92.5% RH, opened, 30 d): 0.06%
% Impurities RRT1.24 ([1]; 92.5% RH, opened, 30 d): 0.05%
% Impurities RRT1.29 ([1]; 92.5% RH, opened, 30 d): 0.07%
% Impurities RRT1.33 ([1]; 92.5% RH, opened, 30 d): 0.08%
% Impurities RRT1.37 ([1]; 92.5% RH, opened, 30 d): 0.08%
% Impurities RRT1.41 ([1]; 92.5% RH, opened, 30 d): 0.09%
% Impurities RRT1.43 ([1]; 92.5% RH, opened, 30 d): 0.05%
% Impurities RRT1.54 ([1]; 92.5% RH, opened, 30 d): <0.05%
% Impurities RRT1.64 ([1]; 92.5% RH, opened, 30 d): 0.21%
% Impurities RRT1.70 ([1]; 92.5% RH, opened, 30 d): 0.05%
% Impurities RRT1.73 ([1]; 92.5% RH, opened, 30 d): 0.53%
% Impurities RRT1.74 ([1]; 92.5% RH, opened, 30 d): 0.10%
% Impurities Total ([1]; 92.5% RH, opened, 30 d): 3.31%
% Impurities RRT0.46 ([1]; Illumination, opened, 0 d): <0.05%
% Impurities RRT0.89 ([1]; Illumination, opened, 0 d): 0.08%
% Impurities RRT1.16 ([1]; Illumination, opened, 0 d): 0.88%
% Impurities RRT1.20 ([1]; Illumination, opened, 0 d): 0.09%
% Impurities RRT1.29 ([1]; Illumination, opened, 0 d): 0.14%
% Impurities RRT1.33 ([1]; Illumination, opened, 0 d): 0.10%
% Impurities RRT1.37 ([1]; Illumination, opened, 0 d): 0.07%
% Impurities RRT1.41 ([1]; Illumination, opened, 0 d): <0.05%
% Impurities RRT1.73 ([1]; Illumination, opened, 0 d): <0.05%
% Impurities RRT1.74 ([1]; Illumination, opened, 0 d): 0.05%
% Impurities Total ([1]; Illumination, opened, 0 d): 1.41%
% Impurities RRT0.46 ([1]; Illumination, opened, 10 d): 0.06%
% Impurities RRT0.89 ([1]; Illumination, opened, 10 d): 0.17%
% Impurities RRT1.16 ([1]; Illumination, opened, 10 d): 0.91%
% Impurities RRT1.20 ([1]; Illumination, opened, 10 d): 0.08%
% Impurities RRT1.29 ([1]; Illumination, opened, 10 d): 0.20%
% Impurities RRT1.33 ([1]; Illumination, opened, 10 d): 0.09%
% Impurities RRT1.37 ([1]; Illumination, opened, 10 d): 0.07%
% Impurities RRT1.41 ([1]; Illumination, opened, 10 d): <0.05%
% Impurities RRT1.73 ([1]; Illumination, opened, 10 d): 0.05%
% Impurities RRT1.74 ([1]; Illumination, opened, 10 d): 0.07%
% Impurities Total ([1]; Illumination, opened, 10 d): 1.70%
Change of relevant substance (in words) ([1]; acceleration 40° C./75% RH, opened): increased significantly at RRT0.46, RRT1.16, RRT1.63 and RRT1.73, and increased slightly at RRT1.41 and RRT1.43
Stability of API (summary) ([1]; compatibility test of raw and auxiliary materials): unstable under the conditions of high humidity, illumination and acceleration
Change of relevant substance (in words) ([1]; high humidity 92.5% RH, opened): increased significantly at RRT0.46, RRT1.16, RRT1.64 and RRT1.73, and increased slightly at RRT1.41 and RRT1.74
Change of relevant substance (in words) ([1]; illumination, opened): increased slightly at RRT 0.89 and RRT 1.29
Content ([2]; 40° C./75% RH (opened), 10 d): 98.9
Content ([2]; 40° C./75% RH (opened), 30 d): 97.3
Content ([2]; 60° C. (opened), 10 d): 100.1
Content ([2]; 60° C. (opened), 30 d): 101.4
Change of content ([2]; 60° C., 92.5% RH, 40° C./75% RH opened, 10 days illumination): did not change significantly
Content ([2]; 92.5% RH (opened), 10 d): 97.8
Content ([2]; 92.5% RH (opened), 30 d): 99.9
Content ([2]; Illumination (opened), 10 d): 100.8
Content ([2]; Initial): 99.7
